# Experimental data taken from patent US7223759B2, “Antibacterial 3,5-diaminopiperidine-substituted aromatic and heteroaromatic compounds” (Anadys Pharmaceuticals, Inc., priority 2003, dated 2007).
# Test system: Escherichia coli (ATCC25922) or Staphylococcus aureus (ATCC25923)
# Experiment: Antibacterial MIC, microdilution method in Mueller-Hinton medium
# Type: cell-based
# Settings: Escherichia coli, 18 h, MIC in E. coli or S. aureus; two-fold serial dilutions 64 to 0.5 μg/ml in duplicate; 18 hours of incubation at 35° C.; read-out: Potency (MIC)
# In short: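 Two-fold serial dilutions from 64 to 0.5 μg/ml, in duplicate, by broth microdilution in Mueller-Hinton medium (NCCLS M7-A5). MIC taken as the lowest concentration preventing visible growth after 18 h at 35° C.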
row,MIC,Compound
1,> 64 µg/mL,"Cc1csc2c(NNc3nc(N4C[C@H](N)C[C@H](N)C4)nc(N4C[C@H](N)C[C@H](N)C4)n3)ncnc12.Cl [N-(4,6-Bis-((3R,5S)-3,5-diamino-piperidin-1-yl)-[1,3,5]triazin-2-yl)-N′-(7-Methyl-thieno[3,2-d]pyrimidin-4-yl)-hydrazine]"
2,> 64 µg/mL,"CC(=O)c1ccc(Nc2nc(N3C[C@H](N)C[C@H](N)C3)nc(N3C[C@@H](N)C[C@@H](O)C3)n2)cc1 [1-{4-[4-((3S,5R)-3-Amino-5-hydroxy-piperidin-1-yl)-6-((3R,5S)-3,5-diamino-piperidin-1-yl)-[1,3,5]triazin-2-ylamino]-phenyl}-ethanone]"
3,< 64 µg/mL,"CC(C)CC(=O)Nc1ccc(Nc2nc(N3CCCCC3)nc(N3CCCCC3)n2)cc1O.Cl [N-[3-hydroxy-4-(3-methyl-butyrylamino)-phenylk]-4,6-Bis-((3R,5S)-3,5-diamino-piperidin-1-yl)-[1,3,5]triazine-2-amine]"
4,> 64 µg/mL,"CC(=O)c1ccc(Nc2nc(N3CCCCC3)nc(N3CCCCC3)n2)cc1.Cl [1-{4-[4-((3R,4S)-3-Aminomethyl-4-hydroxy-piperidin-1-yl)-6-((3R,5S)-3,5-diamino-piperidin-1-yl)-[1,3,5]triazin-2-ylammino]-phenyl}-ethanone]"
5,> 64 µg/mL,"CSc1nnc(Nc2nc(N3C[C@H](N)C[C@H](N)C3)nc(N3C[C@H](N)C[C@H](N)C3)n2)s1.Cl [N-(5-methylsulfanyl-[1,3,4]thiadiazol-2-yl)-4,6-Bis-((3R,5S)-3,5-diamino-piperidin-1-yl)-[1,3,5]triazine-2-amine]"
6,> 64 µg/mL,"Cl.Nc1ccc(Nc2nc(N3C[C@H](N)C[C@H](N)C3)nc(N3C[C@H](N)C[C@H](N)C3)n2)cc1 [N-(4-amino-phenyl)-4,6-Biss-((3R,5S)-3,5-diamino-piperidin-1-yl)-[1,3,5]triazine-2-amine]"
7,< 16 µg/mL,"COc1nc(Nc2ccc(C(=O)Oc3ccccc3)c(O)c2)nc(N2CCCCC2)n1.Cl [4-[4-((3R,5S)-3,5-Diamino-piperidin-1-yl)-6-methoxy-[1,3,5]triazin-2-ylamino]-2-hydroxy-benzoic acidphenylester]"
8,< 64 µg/mL,"Cc1ccc(S(=O)(=O)N(Cc2ccccc2)c2ccc(Nc3nc(NC4CCNCC4)nc(N4C[C@H](N)C[C@H](N)C4)n3)cc2O)cc1 [N-Benzyl-N-{4-[4-((3R,5S)-3,5-diamino-piperidin-1-yl)-6-(piperidin-4-ylamino)-[1,3,5]triazin-2-ylamino]-2-hydroxy-phenyl}-4-methyl-benzenesulfonamide]"
9,> 64 µg/mL,"Cl.Nc1nc(N2C[C@H](N)C[C@H](N)C2)nc(N2C[C@H](N)C[C@H](N)C2)n1 [4,6-Bis-((3R,5S)-3,5-diamino-piperidin-1-yl)-[1,3,5]triazin-2-ylamine]"
10,> 64 µg/mL,"CCOC(=O)c1ccc(Nc2nc(N3C[C@H](N)C[C@H](N)C3)nc(N3C[C@H](N)C[C@H](N)C3)n2)cc1 [4-[4,6-Bis-((3R,5S)-3,5-diamino-piperidin-1-yl)-[1,3,5]triazin-2-ylamino]-benzoic acid ethyl ester]"

# Same assay, conditions: Escherichia coli, 18 h, read-out: Potency (MIC)
row,Compound,MIC
1,"N[C@@H]1C[C@H](N)CN(c2nc(Nc3nc4ccccc4s3)nc(N3C[C@H](N)C[C@H](N)C3)n2)C1 [N-benzothiazol-2-yl-4,6-Bis-((3R,5S)-3,5-diamino-piperidin-1-yl)-[1,3,5]triazine-2-amine]",< 64 µg/mL
2,"COc1nc(Nc2ccc(S(=O)(=O)Nc3ccc4cn[nH]c4c3)cc2)nc(N2C[C@H](N)C[C@H](N)C2)n1 [4-[4-((3R,5S)-3,5-Diamino-piperidin-1-yl)-6-methoxy-[1,3,5]triazin-2-ylamino]-N-(1H-indazol-6-yl)-benzenesulfonamide]",> 64 µg/mL
3,"N[C@@H]1C[C@H](N)CN(c2nc(Nc3ccc(C(=O)c4ccccc4)cc3)nc(N3C[C@H](N)C[C@H](N)C3)n2)C1 [N-(4-benzoyl-phenyl)-4,6-Bis-((3R,5S)-3,5-diamino-piperidin-1-yl)-[1,3,5]triazine-2-amine]",< 64 µg/mL
4,"Cc1ccc(S(=O)(=O)N(Cc2ccccc2)c2ccc(Nc3nc(N4C[C@H](N)C[C@H](N)C4)nc(N4CCC[C@@H](O)C4)n3)c(O)c2)cc1 [N-Benzyl-N-{4-[4-((3R,5S)-3,5-diamino-piperidin-1-yl)-6-((R)-3-hydroxy-piperidin-1-yl)-[1,3,5]triazin-2-ylamino]-3-hydroxy-phenyl}-4-methyl-benzenesulfonamide]",< 64 µg/mL
5,"N[C@@H]1C[C@H](N)CN(c2nc(Nc3ccc(NC(=O)c4cc(Br)ccc4O)cc3)nc(N3C[C@H](N)C[C@H](N)C3)n2)C1 [N-[4-(5-bromo-2-hydroxy-benzoylamino)-phenyl]-4,6-Bis-((3R,5S)-3,5-diamino-piperidin-1-yl)-[1,3,5]triazine-2-amine]",< 16 µg/mL
6,"N[C@@H]1C[C@H](N)CN(c2nc(Nc3ccc(NC(=O)c4ncccc4O)cc3)nc(N3C[C@H](N)C[C@H](N)C3)n2)C1 [N-{4-[(3-hydroxy-pyridine-2-carbonyl)-amino]-phenyl}-4,6-Bis-((3R,5S)-3,5-diamino-piperidin-1-yl)-[1,3,5]triazine-2-amine]",< 64 µg/mL
7,"COc1ccc(NC(=O)c2ccc(O)cc2O)c(Nc2nc(N3C[C@H](N)C[C@H](N)C3)nc(N3C[C@H](N)C[C@H](N)C3)n2)c1 [N-[2-(2,4-dihydroxy-benzoylamino)-5-methoxy-phenyl]-4,6-Bis-((3R,5S)-3,5-diamino-piperidin-1-yl)-[1,3,5]triazine-2-amine]",> 64 µg/mL
8,"COc1ccc(NC(=O)c2cccc(O)c2O)c(Nc2nc(N3C[C@H](N)C[C@H](N)C3)nc(N3C[C@H](N)C[C@H](N)C3)n2)c1 [N-[2-(2,3-dihydroxy-benzoylamino)-5-methoxy-phenyl]-4,6-Bis-((3R,5S)-3,5-diamino-piperidin-1-yl)-[1,3,5]triazine-2-amine]",> 64 µg/mL
9,"N[C@@H]1C[C@H](N)CN(c2nc(Nc3ccc(NC(=O)c4ccc(C(F)(F)F)nc4O)cc3)nc(N3C[C@H](N)C[C@H](N)C3)n2)C1 [N-{4-[(2-hydroxy-6-trifluoromethyl-pyridine-3-carbonyl)-amino]-phenyl}-4,6-Bis-((3R,5S)-3,5-diamino-piperidin-1-yl)-[1,3,5]triazine-2-amine]",< 16 µg/mL
10,"COc1ccc(Nc2nc(N3C[C@H](N)C[C@H](N)C3)nc(N3C[C@H](N)C[C@H](N)C3)n2)cc1 [N-(4-methoxy-phenyl)-4,6-Bis-((3R,5S)-3,5-diamino-piperidin-1-yl)-[1,3,5]triazine-2-amine]",> 64 µg/mL
11,"N[C@@H]1C[C@H](N)CN(c2nc(Nc3cccc(I)c3)nc(N3C[C@H](N)C[C@H](N)C3)n2)C1 [N-(3-Iodo-phenyl)-4,6-Bis-((3R,5S)-3,5-diamino-piperidin-1-yl)-[1,3,5]triazine-2-amine]",< 64 µg/mL
12,"N[C@@H]1C[C@H](N)CN(c2nc(Nc3ccc(NC(=O)c4ccc(Cl)cc4O)c(F)c3)nc(N3C[C@H](N)C[C@H](N)C3)n2)C1 [N-[4-(4-chloro-2-hydroxy-benzoylamino)-3-fluoro-phenyl]-4,6-Bis-((3R,5S)-3,5-diamino-piperidin-1-yl)-[1,3,5]triazine-2-amine]",< 16 µg/mL
13,"N[C@@H]1C[C@H](N)CN(c2nc(Nc3ccc(NC(=O)C(=O)c4c[nH]c5ccccc45)c(O)c3)nc(N3C[C@H](N)C[C@H](N)C3)n2)C1 [N-{3-hydroxy-4-[2-(1H-indol-3-yl)-2-oxo-acetylamino]-phenyl}-4,6-Bis-((3R,5S)-3,5-diamino-piperidin-1-yl)-[1,3,5]triazine-2-amine]",< 16 µg/mL
14,"N[C@@H]1C[C@H](N)CN(c2nc(Nc3ccc(NS(=O)(=O)c4ccccc4)c(O)c3)nc(N3C[C@H](N)C[C@H](N)C3)n2)C1 [N-(4-benzenesulfonylamino-3-hydroxy-phenyl)-4,6-Bis-((3R,5S)-3,5-diamino-piperidin-1-yl)-[1,3,5]triazine-2-amine]",< 64 µg/mL
15,"NC[C@@H]1C[C@H](N)CN1c1nc(Nc2ccc(C(=O)CC(=O)Nc3ccccc3Cl)cc2)nc(N2C[C@H](N)C[C@H](N)C2)n1 [3-{4-[4-((2S,4S)-4-Amino-2-aminomethyl-pyrrolidin-1-yl)-6-((3R,5S)-3,5-diamino-piperidin-1-yl)-[1,3,5]triazine-2-ylamino]-phenyl}-N-(2-chloro-phenyl)-3-oxo-propionamide]",< 64 µg/mL
16,"N[C@@H]1C[C@H](N)CN(c2nc(Nc3ccc(NC(=O)c4cc(Cl)cnc4O)cc3)nc(N3C[C@H](N)C[C@H](N)C3)n2)C1 [N-{4-[(5-chloro-2-hydroxy-pyridine-3-carbonyl)-amino]-phenyl}-4,6-Bis-((3R,5S)-3,5-diamino-piperidin-1-yl)-[1,3,5]triazine-2-amine]",< 64 µg/mL
17,"N[C@@H]1C[C@H](N)CN(c2nc(Nc3ccc(NC(=O)c4ccc(Cl)cc4O)c(C(F)(F)F)c3)nc(N3C[C@H](N)C[C@H](N)C3)n2)C1 [N-[4-(4-chloro-2-hydroxy-benzoylamino)-3-trifluoromethyl-phenyl]-4,6-Bis-((3R,5S)-3,5-diamino-piperidin-1-yl)-[1,3,5]triazine-2-amine]",< 16 µg/mL
18,"CN(c1nc(N2C[C@H](N)C[C@H](N)C2)nc(N2C[C@H](N)C[C@H](N)C2)n1)C1CCN(Cc2ccccc2)C1 (stereo partly drawn) [N-(1-Benzyl-pyrrolidin-3-yl)-N-methyl-4,6-Bis-((3R,5S)-3,5-diamino-piperidin-1-yl)-[1,3,5]triazine-2-amine]",< 64 µg/mL

# Same assay, conditions: MIC in E. coli or S. aureus; two-fold serial dilutions 64 to 0.5 μg/ml in duplicate; 18 hours of incubation at 35° C.
row,Compound,Potency (MIC)
1,"NC[C@@H]1C[C@H](N)CN1c1nc(Nc2ccc(C(=O)CC(=O)Nc3ccc(F)c(F)c3)cc2)nc(N2C[C@H](N)C[C@H](N)C2)n1 [3-{4-[4-((2S,4S)-4-Amino-2-aminomethyl-pyrrolidin-1-yl)-6-((3R,5S)-3,5-diamino-piperidin-1-yl)-[1,3,5]triazin-2-ylamino]-phenyl}-N-(3,4-difluoro-phenyl)-3-oxco-propionamide]",+ (+ means MIC<64 μg/ml in E. coli or S. aureus)
